# Assay results published in patent publication US11292787B2, “Five-membered-fused-six-membered aza-aromatic ring compound, preparation method thereof, pharmaceutical composition and application thereof” (XIAMEN UNIVERSITY, priority 2017, dated 2022).
# Target: T1, K-Ras protein (Homo sapiens, UniProt P01116, G12V)
# T1 construct: in SW620 cells, compound I-a-1 can effectively enhance the degradation of endogenous K-RAS-G12V proteins; endogenous in cells; host or cells: SW-620
# Assay: K-Ras protein degradation rate by Western blot in SW-620 cells
# Type: cell-based
# Conditions: 10 μM, SW-620 cells, 24 h, Western blot, relative to DMSO control; read-out: Degradation rate of compounds at 10 μM on Ras protein (%)
# Protocol: Inhibitory activity of compounds on K-RAS was evaluated by the degradation rate of protein level of administration group relative to control group (Cell Rep 2014, 7, 871-882).
# The specific method was as follows:
# 1. Cell plating: SW-620 cells in logarithmic growth phase were inoculated into a 24-well plate at 2×10^4/well, and cultured in a 37° C., 5% CO2 incubator.
# 2. Administering drug to cells: after 24 h of culture, various drug stocks […]; the original solution in the 24-well plate was discarded, to which was added the obtained drug solution, with the DMSO group as the blank control; after the drug solution was added, the 24-well plate was transferred to the 37° C. CO2 incubator to continue the culture.
# 3. Detection of K-Ras protein level: after 24 h of administration and culture, the liquid in the well was discarded, the cells were routinely collected, and rinsed twice with 1×PBS, a cell lysate was added to extract the total cellular protein, and the protein concentration was determined by BCA method. 30 μg of the protein sample was taken for SDS-polyacrylamide gel electrophoretic transmembrane, the membrane was blocked sequentially, incubated with K-Ras antibody (1:1000) and internal reference antibody β-actin (1:2000) respectively overnight at 4° C., rinsed with TBST for 5 min×3 times, then incubated with the addition of the corresponding horseradish peroxidase-labeled secondary antibody (1:5000) for 1-2 h, and rinsed with TBST for 5 min×3 times. Finally, chemiluminescence image was acquired using Image Lab software.
# 4. Calculation of single-point K-Ras protein degradation rate: quantitative and calibration analysis of K-Ras and β-actin were conducted using Image-Lab software, and then the intracellular K-Ras degradation rate was calculated according to the following formula: single-point K-Ras protein degradation rate (%)=(control group−administration group)/control group×100%. The drug with degradation rate ≥20% was selected for soft agar experiment.
# T1 sequence (P01116 1-188 isoform P01116-2 G12V): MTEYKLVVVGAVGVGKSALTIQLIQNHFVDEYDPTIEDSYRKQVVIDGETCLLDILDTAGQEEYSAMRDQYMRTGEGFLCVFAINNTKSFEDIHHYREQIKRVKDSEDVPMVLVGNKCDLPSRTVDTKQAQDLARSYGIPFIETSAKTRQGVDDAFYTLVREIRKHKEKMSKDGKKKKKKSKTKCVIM
row,Compound,percent K-Ras protein degradation (single point) at 10 µM [%]
1,O=C(NCc1ccccc1OC(F)(F)F)c1c[nH]c(-c2n[nH]c3ncccc23)c1 [III-f-39],60
2,O=C(NCc1ccccc1Cl)c1c[nH]c(-c2n[nH]c3ncccc23)c1 [III-f-47],50
3,O=C(NCc1c(F)cccc1Cl)c1coc(-c2n[nH]c3ncccc23)c1 [III-b-1],35
4,O=C(NCc1cc(F)ccc1F)c1c[nH]c(-c2n[nH]c3ncccc23)c1 [III-f-56],70
5,N#Cc1ccc(CNC(=O)c2c[nH]c(-c3n[nH]c4ncccc34)c2)cc1 [III-f-31],45
6,Cc1cccc(CNC(=O)c2c[nH]c(-c3n[nH]c4ncccc34)c2)c1 [III-f-50],40
7,O=C(NCc1c(F)cccc1Cl)c1cccc(-c2n[nH]c3ccccc23)c1 [I-d-1],2
8,O=C(NCc1c(F)cccc1Cl)c1csc(-c2c[nH]c3ccccc23)c1 [IV-a-1],10
9,O=C(NCc1cc(C(F)(F)F)ccc1F)c1c[nH]c(-c2n[nH]c3ncccc23)c1 [III-f-62],70
10,O=C(NCc1cccc(Cl)c1)c1c[nH]c(-c2n[nH]c3ncccc23)c1 [III-f-46],60
11,O=C(NCc1cccc(C(F)(F)F)c1)c1csc(-c2n[nH]c3ccccc23)c1 [I-a-8],20
12,O=C(Nc1ccccc1)c1ccc(-c2c[nH]c3ccccc23)cc1 [IV-e-2],20
13,O=C(Nc1ccccc1)c1ccc(-c2n[nH]c3ccccc23)cc1 [I-e-2],12
14,O=C(NCc1cccc(OC(F)(F)F)c1)c1c[nH]c(-c2n[nH]c3ncccc23)c1 [III-f-38],50
15,O=S(=O)(Cc1ccccc1)c1c[nH]c(-c2n[nH]c3ncccc23)c1 [III-h-1],14
16,COc1ccc(NC(=O)c2c[nH]c(-c3n[nH]c4ncccc34)c2)cc1 [III-f-17],19
17,O=C(NCc1ccccn1)c1c[nH]c(-c2n[nH]c3ncccc23)c1 [III-f-37],35
18,O=C(NCc1c(F)cccc1Cl)c1ccc(-c2n[nH]c3ncccc23)s1 [III-e-1],40
19,O=S(=O)(Cc1c(Cl)cccc1Cl)c1c[nH]c(-c2n[nH]c3ncccc23)c1 [III-h-3],18
20,O=C(Nc1ccccc1)c1coc(-c2c[nH]c3ccccc23)c1 [IV-c-2],50
21,O=C(Nc1ccc(OC(F)(F)F)cc1)c1c[nH]c(-c2n[nH]c3ncccc23)c1 [III-f-18],15
22,O=C(NCc1ccc(OC(F)(F)F)cc1)c1c[nH]c(-c2n[nH]c3ncccc23)c1 [III-f-40],30
23,O=C(Nc1ccccc1)c1c[nH]c(-c2n[nH]c3ccccc23)c1 [I-b-2],56
24,O=C(NCc1c(F)cccc1Cl)c1ccc(-c2n[nH]c3ccccc23)s1 [I-f-1],20
25,O=C(NCc1ccc(Cl)c(C(F)(F)F)c1)c1c[nH]c(-c2n[nH]c3ncccc23)c1 [III-f-61],50
26,O=C(NCc1c(F)cccc1Cl)c1c[nH]c(-c2n[nH]c3ccccc23)c1 [I-b-1],50
27,Nc1cccc(CNC(=O)c2c[nH]c(-c3n[nH]c4ncccc34)c2)c1 [III-f-49],50
28,O=C(NCc1c(F)cccc1Cl)c1coc(-c2c[nH]c3ncccc23)c1 [II-b-1],52
29,Cc1ccccc1CNC(=O)c1c[nH]c(-c2n[nH]c3ncccc23)c1 [III-f-51],70
30,CC(C)Oc1ccc(NC(=O)c2c[nH]c(-c3n[nH]c4ncccc34)c2)cc1 [III-f-15],14

# More lines, now with the values ahead:
row,percent K-Ras protein degradation (single point) at 10 µM [%],Compound
1,2,O=C(NC1CCCCC1)c1c[nH]c(-c2cnc3cccnn23)c1 [VIII-b-3]
2,40,O=C(Nc1ccccc1)c1coc(-c2cnc3ccccn23)c1 [IX-c-2]
3,30,O=C(Nc1ccccc1)c1ccc(-c2cnc3cnccn23)s1 [VII-f-2]
4,30,O=C(NC1CCCCC1)c1ccc(-c2cnc3cnccn23)cc1 [VII-e-3]
5,30,O=C(NCc1c(F)cccc1Cl)c1ccc(-c2cnc3cnccn23)cc1 [VII-e-1]
6,10,O=C(NCc1c(F)cccc1Cl)c1ccc(-c2nnc3ccccn23)cc1 [X-e-1]
7,25,O=C(NCc1c(F)cccc1Cl)c1ccc(-c2cnc3cnccn23)s1 [VII-f-1]
8,10,O=C(Nc1ccccc1)c1coc(-c2cnc3cccnn23)c1 [VIII-c-2]
9,50,O=C(NCc1cc(C(F)(F)F)ccc1F)c1csc(-c2cnc3cccnn23)c1 [VIII-a-3]
10,12,O=C(NCc1c(F)cccc1Cl)c1coc(-c2cnc3cccnn23)c1 [VIII-c-1]
11,30,O=C(NCc1cc(C(F)(F)F)ccc1F)c1csc(-c2cnc3cnccn23)c1 [VII-a-3]
12,30,O=C(NCc1c(F)cccc1Cl)c1cccc(-c2cnc3ccccn23)c1 [IX-d-1]
13,40,O=C(NCc1c(F)cccc1Cl)c1ccc(-c2cnc3ccccn23)cc1 [IX-e-1]
14,50,O=C(NCc1c(F)cccc1Cl)c1ccc(-c2cnc3ccccn23)s1 [IX-f-1]
15,20,O=C(NCc1c(F)cccc1Cl)c1c[nH]c(-c2cnc3cnccn23)c1 [VII-b-1]
16,30,CC(C)(C)n1nc(-c2cccc(C(=O)Nc3ccccc3)c2)c2c(N)ncnc21 [VI-d-2]
17,60,O=C(NCc1cccc(C(F)(F)F)c1)c1csc(-c2cnc3cccnn23)c1 [VIII-a-2]
18,5,O=C(NCc1c(F)cccc1Cl)c1csc(-c2cnc3cnccn23)c1 [VII-a-1]
